# Test results: patent US8247211B2, “Glycopeptide antibiotics” (American Cyanamid Company, priority 2001, dated 2012)
# Columns and labels:
# Assay in all cases: In vitro antibacterial evaluation: minimum inhibitory concentration (MIC), broth dilution method
# Format in all cases: cell-based
# Conditions in all cases: 18 hours at 35° C.
# Enterococcus sp. = tested on: Enterococcus sp.
# Method: (§1) The minimum inhibitory concentration (MIC), the lowest concentration of the antibiotic which inhibits growth of the test organism, is determined by the broth dilution method using Muller-Hinton II […] (Baltimore Biological Laboratories) following the recommendations of the National Committee for Clinical Laboratory Standards [Methods for dilution antimicrobial susceptibility tests for bacteria that grow aerobically, approved standard M7-A2, National Committee for Clinical Laboratory Standards, Villanova, Pa].
# (§2) An inoculum level of 5×10^5 CFU/mL, and a range of antibiotic concentrations (64-0.06 μg/mL) is used. […] The test organisms include a spectrum of Gram-positive bacteria comprised of Staphylococcus sp., Streptococcus sp. and Enterococcus sp. These organisms include recent clinical isolates that are resistant to methicillin, penicillin and/or vancomycin.
# Escherichia coli = tested on: Escherichia coli
# Method: as §1, §2
# Staphylococcus sp. = tested on: Staphylococcus sp.
# Method: as §1, §2
# Streptococcus sp. = tested on: Streptococcus sp.
# Method: as §1, §2
# [1] = Enterococcus faecalis (GC 2242)
# [2] = Enterococcus faecalis (GC 2691)
# [3] = Enterococcus faecalis (GC 3059)
# [4] = broth dilution, inoculum 5×10^5 CFU/mL
# [5] = Streptococcus agalactiae (GC 4564)
# [6] = Streptococcus pneumoniae (ATCC 6301)
# [7] = Streptococcus pneumoniae (GC 1894)
# [8] = Streptococcus pneumoniae (GC 4565)
# [9] = Streptococcus pyogenes (GC 4563)
smiles,measurement,setting,value
CC(c1ccccc1)C1NC(=O)CNC(=O)C(CO)NC(=O)C(CC2CNC(=N)N2C2OC(CO)C(O)C(O)C2O)NC(=O)C(CC2CNC(=N)N2)NC(=O)C(Cc2ccc(OC3OC(CO)C(OC4OC(CO)C(OCc5ccc(OCc6ccccc6)cc5)C(O)C4O)C(O)C3O)cc2)NC1=O (stereo not drawn) [Example 246a],MIC Enterococcus avium (GC 4558),Enterococcus sp.,2 µg/mL
same,MIC Enterococcus faecalis (ATCC 29212),Enterococcus sp.,4 µg/mL
same,MIC Enterococcus faecalis (GC 2242),Enterococcus sp.; [1],4 µg/mL
same,MIC Enterococcus faecalis (GC 2691),Enterococcus sp.; [2],8 µg/mL
same,MIC Enterococcus faecalis (GC 3059),Enterococcus sp.; [3],4 µg/mL
same,MIC Enterococcus faecalis (GC 4552),Enterococcus sp.,4 µg/mL
same,MIC Enterococcus faecalis (GC 4553),Enterococcus sp.,2 µg/mL
same,MIC Enterococcus faecalis (GC 4554),Enterococcus sp.,4 µg/mL
same,MIC Enterococcus faecalis (GC 6189),Enterococcus sp.,4 µg/mL
same,MIC Enterococcus faecium (GC 2243),Enterococcus sp.,4 µg/mL
same,MIC Enterococcus faecium (GC 4556),Enterococcus sp.,4 µg/mL
same,MIC Enterococcus faecium (GC 4557),Enterococcus sp.,2 µg/mL
same,MIC Enterococcus faecalis (GC 2242),Enterococcus sp.; [4],4 µg/mL
same,MIC Enterococcus faecalis (GC 2691),Enterococcus sp.; [4],8 µg/mL
same,MIC Enterococcus faecalis (GC 3059),Enterococcus sp.; [4],4 µg/mL
same,MIC Escherichia coli (ATCC 25922),Escherichia coli,16 µg/mL
same,MIC Escherichia coli (GC 4559),Escherichia coli,16 µg/mL
same,MIC Escherichia coli (GC 4560),Escherichia coli,2 µg/mL
same,MIC Coagulase Negative Staphylococcus (GC 4547),Staphylococcus sp.,1 µg/mL
same,MIC Coagulase Negative Staphylococcus (GC 4548),Staphylococcus sp.,1 µg/mL
same,MIC Coagulase Negative Staphylococcus (GC 4549),Staphylococcus sp.,1 µg/mL
same,MIC Coagulase Negative Staphylococcus (GC 4551),Staphylococcus sp.,2 µg/mL
same,MIC Coagulase Negative Staphylococcus (GC 6257),Staphylococcus sp.,2 µg/mL
same,MIC Staphylococcus aureus (ATCC 29213),Staphylococcus sp.,2 µg/mL
same,MIC Staphylococcus aureus (GC 1131),Staphylococcus sp.,4 µg/mL
same,MIC Staphylococcus aureus (GC 3051),Staphylococcus sp.,1 µg/mL
same,MIC Staphylococcus aureus (GC 3053),Staphylococcus sp.,2 µg/mL
same,MIC Staphylococcus aureus (GC 4541),Staphylococcus sp.,1 µg/mL
same,MIC Staphylococcus aureus (GC 4542),Staphylococcus sp.,1 µg/mL
same,MIC Staphylococcus aureus (GC 4544),Staphylococcus sp.,2 µg/mL
same,MIC Staphylococcus aureus (GC 4545),Staphylococcus sp.,2 µg/mL
same,MIC Staphylococcus aureus-SMITH (GC 4543),Staphylococcus sp.,1 µg/mL
same,MIC Staphylococcus haemolyticus (GC 4546),Staphylococcus sp.,1 µg/mL
same,MIC Streptococcus agalactiae (GC 4564),Streptococcus sp.; [5],0.5 µg/mL
same,MIC Streptococcus pneumoniae (ATCC 6301),Streptococcus sp.; [6],0.25 µg/mL
same,MIC Streptococcus pneumoniae (GC 1894),Streptococcus sp.; [7],<0.12 µg/mL
same,MIC Streptococcus pneumoniae (GC 4565),Streptococcus sp.; [8],0.25 µg/mL
same,MIC Streptococcus pyogenes (GC 4563),Streptococcus sp.; [9],0.5 µg/mL
same,MIC Streptococcus agalactiae (GC 4564),Streptococcus sp.; [4],0.5 µg/mL
same,MIC Streptococcus pneumoniae (ATCC 6301),Streptococcus sp.; [4],0.25 µg/mL
same,MIC Streptococcus pneumoniae (GC 1894),Streptococcus sp.; [4],<0.12 µg/mL
same,MIC Streptococcus pneumoniae (GC 4565),Streptococcus sp.; [4],0.25 µg/mL
same,MIC Streptococcus pyogenes (GC 4563),Streptococcus sp.; [4],0.5 µg/mL
"CCCCCNC(=O)OC1C(CO)OC(OC2C(CO)OC(Oc3ccc(CC4NC(=O)C(C(C)c5ccccc5)NC(=O)CNC(=O)C(CO)NC(=O)C(C(O)C5CNC(=N)N5C5OC(CO)C(O)C(O)C5O)NC(=O)C(C(O)C5CNC(=N)N5)NC4=O)cc3)C(O)C2O)C(O)C1O (stereo not drawn) [Example 251, α-O-[(Pentylamino)carbonyl]-cyclo[glycyl-β-methylphenylalanyl-O-(4-O-hexopyranosylhexopyranosyl)tyrosyl-3-(2-iminoimidazolidin-4-yl)seryl-3-(3-hexopyranosyl-2-iminoimidazolidin-4-yl)serylseryl]]",MIC Enterococcus avium (GC 4558),Enterococcus sp.,>64 µg/mL
same,MIC Enterococcus faecalis (ATCC 29212),Enterococcus sp.,>64 µg/mL
same,MIC Enterococcus faecalis (GC 2242),Enterococcus sp.; [1],>64 µg/mL
same,MIC Enterococcus faecalis (GC 4552),Enterococcus sp.,>64 µg/mL
same,MIC Enterococcus faecalis (GC 4553),Enterococcus sp.,>64 µg/mL
same,MIC Enterococcus faecalis (GC 4554),Enterococcus sp.,>64 µg/mL
same,MIC Enterococcus faecium (GC 2243),Enterococcus sp.,>64 µg/mL
same,MIC Enterococcus faecium (GC 4556),Enterococcus sp.,>64 µg/mL
same,MIC Enterococcus faecium (GC 4557),Enterococcus sp.,64 µg/mL
same,MIC Escherichia coli (ATCC 25922),Escherichia coli,>64 µg/mL
same,MIC Escherichia coli (GC 4559),Escherichia coli,>64 µg/mL
same,MIC Escherichia coli (GC 4560),Escherichia coli,4 µg/mL
same,MIC Coagulase Negative Staphylococcus (GC 4547),Staphylococcus sp.,>64 µg/mL
same,MIC Coagulase Negative Staphylococcus (GC 4548),Staphylococcus sp.,>64 µg/mL
same,MIC Coagulase Negative Staphylococcus (GC 4549),Staphylococcus sp.,>64 µg/mL
same,MIC Coagulase Negative Staphylococcus (GC 4551),Staphylococcus sp.,>64 µg/mL
same,MIC Coagulase Negative Staphylococcus (ID-3941),Staphylococcus sp.; Coagulase Negative Staphylococcus (ID-3941),64 µg/mL
same,MIC Staphylococcus aureus (ATCC 29213),Staphylococcus sp.,>64 µg/mL
same,MIC Staphylococcus aureus (GC 1131),Staphylococcus sp.,>64 µg/mL
same,MIC Staphylococcus aureus (GC 4541),Staphylococcus sp.,>64 µg/mL
same,MIC Staphylococcus aureus (GC 4542),Staphylococcus sp.,>64 µg/mL
same,MIC Staphylococcus aureus (GC 4544),Staphylococcus sp.,>64 µg/mL
same,MIC Staphylococcus aureus (GC 4545),Staphylococcus sp.,>64 µg/mL
same,MIC Staphylococcus aureus-SMITH (GC 4543),Staphylococcus sp.,>64 µg/mL
same,MIC Staphylococcus haemolyticus (GC 4546),Staphylococcus sp.,>64 µg/mL
same,MIC Streptococcus agalactiae (GC 4564),Streptococcus sp.; [5],>64 µg/mL
same,MIC Streptococcus pneumoniae (GC 4565),Streptococcus sp.; [8],64 µg/mL
same,MIC Streptococcus pyogenes (ID-3187),Streptococcus sp.; Streptococcus pyogenes (ID-3187),64 µg/mL
CC(c1ccccc1)C1NC(=O)CNC(=O)C(CO)NC(=O)C(C(O)C2CNC(=N)N2C2OC(CO)C(O)C(O)C2O)NC(=O)C(C(O)C2CNC(=N)N2)NC(=O)C(Cc2ccc(OC3OC(CO)C(OC4OC(COCC=Cc5ccc(N(C)C)cc5)C(O)C(O)C4O)C(O)C3O)cc2)NC1=O (stereo not drawn) [Example 243],MIC Enterococcus avium (GC 4558),Enterococcus sp.,32 µg/mL
same,MIC Enterococcus faecalis (ATCC 29212),Enterococcus sp.,>64 µg/mL
same,MIC Enterococcus faecalis (GC 2242),Enterococcus sp.; [1],64 µg/mL
same,MIC Enterococcus faecalis (GC 2691),Enterococcus sp.; [2],>64 µg/mL
same,MIC Enterococcus faecalis (GC 3059),Enterococcus sp.; [3],>64 µg/mL
same,MIC Enterococcus faecalis (GC 4552),Enterococcus sp.,>64 µg/mL
same,MIC Enterococcus faecalis (GC 4553),Enterococcus sp.,64 µg/mL
same,MIC Enterococcus faecalis (GC 4554),Enterococcus sp.,>64 µg/mL
same,MIC Enterococcus faecalis (GC 6189),Enterococcus sp.,64 µg/mL
same,MIC Enterococcus faecium (GC 2243),Enterococcus sp.,64 µg/mL
same,MIC Enterococcus faecium (GC 4556),Enterococcus sp.,>64 µg/mL
same,MIC Enterococcus faecium (GC 4557),Enterococcus sp.,32 µg/mL
same,MIC Enterococcus faecalis (GC 2242),Enterococcus sp.; [4],64 µg/mL
same,MIC Enterococcus faecalis (GC 2691),Enterococcus sp.; [4],>64 µg/mL
same,MIC Enterococcus faecalis (GC 3059),Enterococcus sp.; [4],>64 µg/mL
same,MIC Escherichia coli (ATCC 25922),Escherichia coli,>64 µg/mL
same,MIC Escherichia coli (GC 4559),Escherichia coli,>64 µg/mL
same,MIC Escherichia coli (GC 4560),Escherichia coli,64 µg/mL
same,MIC Coagulase Negative Staphylococcus (GC 4547),Staphylococcus sp.,64 µg/mL
same,MIC Coagulase Negative Staphylococcus (GC 4548),Staphylococcus sp.,32 µg/mL
same,MIC Coagulase Negative Staphylococcus (GC 4549),Staphylococcus sp.,32 µg/mL
same,MIC Coagulase Negative Staphylococcus (GC 4551),Staphylococcus sp.,64 µg/mL
same,MIC Coagulase Negative Staphylococcus (GC 6257),Staphylococcus sp.,32 µg/mL
same,MIC Staphylococcus aureus (ATCC 29213),Staphylococcus sp.,64 µg/mL
same,MIC Staphylococcus aureus (GC 1131),Staphylococcus sp.,64 µg/mL
same,MIC Staphylococcus aureus (GC 3051),Staphylococcus sp.,64 µg/mL
same,MIC Staphylococcus aureus (GC 3053),Staphylococcus sp.,64 µg/mL
same,MIC Staphylococcus aureus (GC 4541),Staphylococcus sp.,64 µg/mL
same,MIC Staphylococcus aureus (GC 4542),Staphylococcus sp.,64 µg/mL
same,MIC Staphylococcus aureus (GC 4544),Staphylococcus sp.,64 µg/mL
same,MIC Staphylococcus aureus (GC 4545),Staphylococcus sp.,64 µg/mL
same,MIC Staphylococcus aureus-SMITH (GC 4543),Staphylococcus sp.,64 µg/mL
same,MIC Staphylococcus haemolyticus (GC 4546),Staphylococcus sp.,64 µg/mL
same,MIC Streptococcus agalactiae (GC 4564),Streptococcus sp.; [5],32 µg/mL
same,MIC Streptococcus pneumoniae (ATCC 6301),Streptococcus sp.; [6],32 µg/mL
same,MIC Streptococcus pneumoniae (GC 1894),Streptococcus sp.; [7],8 µg/mL
same,MIC Streptococcus pneumoniae (GC 4565),Streptococcus sp.; [8],16 µg/mL
same,MIC Streptococcus pyogenes (GC 4563),Streptococcus sp.; [9],32 µg/mL
same,MIC Streptococcus agalactiae (GC 4564),Streptococcus sp.; [4],32 µg/mL
same,MIC Streptococcus pneumoniae (ATCC 6301),Streptococcus sp.; [4],32 µg/mL
same,MIC Streptococcus pneumoniae (GC 1894),Streptococcus sp.; [4],8 µg/mL
same,MIC Streptococcus pneumoniae (GC 4565),Streptococcus sp.; [4],16 µg/mL
same,MIC Streptococcus pyogenes (GC 4563),Streptococcus sp.; [4],32 µg/mL
